Data on eight molecules can be found in publication PMC9458978, “Design, synthesis and biological evaluation of novel biphenylsulfonamide derivatives as selective AT2 receptor antagonists” (Frontiers in Chemistry, 2022).

One may read the Ki as the equilibrium dissociation constant of an inhibitor or competing ligand from its target.

“Also recorded” adds a separate entry of the source.

Data set [1] has as its target T1, AT2 receptor (Homo sapiens, UniProt P50052).
T1 construct: expressed in transfected cells; host or cells: HEK-293
T1 sequence (P50052 1-363): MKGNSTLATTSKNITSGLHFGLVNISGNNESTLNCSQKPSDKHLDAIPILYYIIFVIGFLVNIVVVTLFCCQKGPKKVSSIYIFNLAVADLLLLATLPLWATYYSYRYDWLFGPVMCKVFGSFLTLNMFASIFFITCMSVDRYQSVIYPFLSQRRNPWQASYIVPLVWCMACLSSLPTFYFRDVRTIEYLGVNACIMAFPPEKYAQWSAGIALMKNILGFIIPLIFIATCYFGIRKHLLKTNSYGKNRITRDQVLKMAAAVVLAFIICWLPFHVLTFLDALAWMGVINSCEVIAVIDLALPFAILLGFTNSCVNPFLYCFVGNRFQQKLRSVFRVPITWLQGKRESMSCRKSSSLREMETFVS
The data set can be described thus: HEK-293 cell AT2 receptor binding assay ([125I]-CGP42112 displacement, HEK293-hAT2R). The protocol:
All of above methods were widely accepted and used to evaluate the binding activity of AT1 and AT2 receptors.
The lysis solution was mixed and centrifuged at 12,000 g for 10 min at 4°C. Details are shown in the Supplementary Material.
After HEK-293 cells were transfected with AT2 receptor, lysis buffer (150 mM NaCl, 0.1% Triton X-100, 50 mM Tris-HCl, 1 mM EDTA, protease inhibitor) was used to separate the cell membrane of HEK-293 cells[2],using 27-G Resuspend and mix the lysis solution, and centrifuge at 12,000 g for 10 minutes at 4 °C. The supernatant was collected and centrifuged for a further 60 minutes. The precipitated membrane extracts were buffered (150 mM NaCl, 10 mM MgCl2, 0.5 % SDS, 1 % Triton X-100, 50 mM Tris-Cl, 1 mM EDTA, protease inhibitor ) for resuspension. […]
mL containing 50 mM Tris-HCl (pH 7.4), 100 mM NaCl, 10 mM MgCl2, 1 mM […]
cpm, 0.03 nM), and variable concentrations of test substance. Samples were incubated at 25 ℃ for 2 h, and binding was terminated by filtration through Whatman GF/B glass-fiber filter sheets, which had been presoaked overnight with 0.3 % polyethylamine, using a Brandel cell harvester. The filterswere washed with 3×3 mL of Tris-HCl (pH 7.4) and transferred to tubes. The radioactivity was measured in a γ-counter. The characteristics of the Ang II binding AT1 receptor was determined by […]
Nonspecific binding was determined in the presence of 1 µM Ang II.The specific binding was determined by subtracting the nonspecific binding from the total bound The apparent dissociation constant Ki values were calculated from IC50 values using the Cheng-Prusoff equation. […]
(§1) one-site fit.All determinations were performed in triplicate. […]

Data set [2] deals with AT2 receptor. Put plainly: Neurite outgrowth assay with NG108-15 cells (AT2 receptor function assay). Particulars: for Function (AT2 receptor agonist / antagonist): 3-day treatment, 10 or 100 nM, with or without PD-123,319 (10 uM) or Ang II; for evidence of cell death: dilution series 1 pM to 1 uM, seen only at the highest concentration. The protocol: The ratio of cell neurite outgrowth was used to evaluate, and the details are shown in the Supplementary Material.
NG108-15 cells (China Center for Type Culture Collection CCTCC) were used to study the in vitro morphological effects. In their undifferentiated state, neuroblastoma × glioma hybrid NG108-15 cells havea rounded shape and divide actively. The cells were cultured from passage 18–25 in Dulbecco’s modified Eagle’s medium (DMEM, Gibco BRL, Thermo Fisher Technology (China) Co., Ltd, China) with 10% fetal bovine serum (FBS, Gibco), HAT supplement and 50 mg L^−1 gentamycin at 37°C in 75 cm^2 Nunclon Delta flasks in a humidified atmosphere of 95% air and 5% CO2, as previously described ([Buisson et al., 1992]). Subcultures were performed at subconfluency. Under these conditions, cells express mainly the AT2 receptor subtype ([Whitebread et al., 1991]). Cells were treated during 3 days, once a day (first treatment 24 h after plating), and micrographs were taken on the fourth day. The details of experimental grouping and administration method are shown in the Supplementary Material. […]
4. NG108-15 cell experiment steps […]
peptidic AT2 receptor agonist CGP-42112A induces neurite outgrowth. The […]
plated as described in the Experimental Section, and adequate test concentrations for […]
each compound were determined by testing a dilution series of each compound […]
ranging from 1 pM to 1 uM.
The chemicals used in the present study were obtained from the following sources: Dulbecco’s modified Eagle’s medium (DMEM), heat-inactivated fetal bovine serum (FBS), HAT supplement (hypoxanthine, aminopterin, thymidine), gentamycin from Gibco BRL (Burlington, Ontario, Canada), and Ang II from MedChemExpress

In the next data set the target is T2, AT1 receptor (Rattus norvegicus, UniProt P25095).
T2 construct: Rat liver membranes were prepared according to the method of Dudley et al; from tissue; host or cells: rat liver membranes
T2 sequence (P25095 whole entry): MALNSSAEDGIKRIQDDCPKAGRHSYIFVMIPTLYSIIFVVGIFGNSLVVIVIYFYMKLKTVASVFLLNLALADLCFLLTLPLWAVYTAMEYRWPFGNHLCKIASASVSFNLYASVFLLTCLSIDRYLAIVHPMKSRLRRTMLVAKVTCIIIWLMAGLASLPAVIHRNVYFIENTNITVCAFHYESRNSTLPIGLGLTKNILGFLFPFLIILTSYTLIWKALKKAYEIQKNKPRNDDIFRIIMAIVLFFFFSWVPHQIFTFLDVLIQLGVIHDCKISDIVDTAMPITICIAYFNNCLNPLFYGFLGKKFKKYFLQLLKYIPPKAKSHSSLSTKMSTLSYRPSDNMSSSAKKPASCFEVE
Put plainly: Rat liver membrane AT1 receptor binding assay ([125I]-Ang II displacement). To be noted: displacement of [125I]-Ang II, rat liver membranes; means ± SE, triplicate; read-out: Ki (nM) AT1R. How it is done: The target compounds were evaluated for AT1 receptor binding affinity by displacement of [^125I]-Ang II from the AT1 receptor in rat liver membranes. The radio-iodinated AT2 receptor selective ligand [^125I]-CGP42112 was used to study AT2 receptor binding affinity in HEK-293 cells (HEK293-hAT2R) ([Dudley et al., 1990]; [Whitebread et al., 1991]). All of above methods were widely accepted and used to evaluate the binding activity of AT1 and AT2 receptors.
Rat liver membranes were prepared according to the method of Dudley et al ([Dudley et al., 1990]). After HEK-293 cells were transfected with the AT2 receptor, a lysis buffer was used to separate the cell membrane of HEK-293 cells ([Grieger et al., 2016]), using 27-G Resuspend. The lysis solution was mixed and centrifuged at 12,000 g for 10 min at 4°C. Details are shown in the Supplementary Material.
3. Radioligand binding assay steps
3.1 Rat Liver Membrane AT1 Receptor Binding Assay.
Rat liver membranes were prepared according to the method of Dudley et al[1].
Binding of [125I]-Ang II to membranes was conducted in a final volume of 0.5 mL containing 50 mM Tris-HCl (pH 7.4), 100 mM NaCl, 10 mM MgCl2, 1 mM EDTA, 0.025% bacitracin, 0.2% BSA (bovine serum albumin), liver homogenate corresponding to 5 mg of the original tissue weight, [125I]-Ang II (80000-85 000 cpm, 0.03 nM), and variable concentrations of test substance. Samples were incubated at 25 ℃ for 2 h, and binding was terminated by filtration through Whatman GF/B glass-fiber filter sheets, which had been presoaked overnight with 0.3 % polyethylamine, using a Brandel cell harvester. The filterswere washed with 3×3 mL of Tris-HCl (pH 7.4) and transferred to tubes. The radioactivity was measured in a γ-counter. The characteristics of the Ang II binding AT1receptor was determined by using six different concentrations (0.03-5 nmol/L) of the labeled [125I]-Ang II.
Nonspecific binding was determined in the presence of 1 µM Ang II.The specific binding was determined by subtracting the nonspecific binding from the total bound [125I]-Ang II.The apparent dissociation constant Ki values were calculated from IC50 values using the Cheng-Prusoff equation. […]
as §1
(In general: In a radioligand displacement assay an active substance lowers the binding of a labelled ligand.)

The next data set deals with AT2R. Particulars: Figure 5, tetrahydroisoquinoline antagonists, ref Smith et al., 2013, Rice et al., 2014, Smith and Muralidharan, 2015, 2016; cited from earlier work.

Take `CCCCOc1ccc(S(=O)(=O)NC(=O)CCCC)c(-c2cccc(Cn3cncn3)c2)c1` [8i, N-((3'-((1H-1,2,4-triazol-1-yl)methyl)-5-butoxy-[1,1′-biphenyl]-2-yl)sulfonyl)pentanamide]: the Ki turned out to be 199.6 ± 1.17 nM on AT2 receptor [1] and 1250 ± 1.12 nM at AT1 receptor. Further, the “Function (AT2 receptor agonist / antagonist)” value in the data set with AT2 receptor [2] is recorded as “antagonistic activity; also recorded: AT2R antagonist; also recorded: antagonist activity”.
Taken in the same sequence, the figures for `CCCCOc1ccc(S(=O)(=O)NC(=O)OCC(C)C)c(-c2cccc(Cn3cncn3)c2)c1` [8k, Isobutyl((3'-((1H-1,2,4-triazol-1-yl)methyl)-5-butoxy-[1,1′-biphenyl]-2-yl)sulfonyl)carbamate] were 712.5 ± 1.17 nM, 775 ± 1.08 nM and “antagonistic activity; also recorded: AT2R antagonist; also recorded: antagonist activity”.
Turning to `CC(C)Cc1ccc(S(=O)(=O)NC(=O)OC(C)C)c(-c2cccc(Cn3cncn3)c2)c1` [8d, Isopropyl((3’-((1H-1,2,4-triazol-1-yl)methyl)-5-isobutyl-[1,1′-biphenyl]-2-yl)sulfonyl)carbamate], affinity at AT2 receptor [1] was put at a Ki of 116 ± 1.18 nM. In the data set with AT2 receptor [2], the “Function (AT2 receptor agonist / antagonist)” value is reported as “antagonistic activity; also recorded: antagonist activity” and the “evidence of cell death” value is “evidence of cell death”. Moreover, at AT1 receptor, the Ki turned out to be 1786 ± 1.37 nM.
As for `CCCCOc1ccc(S(=O)(=O)NC(=O)OC(C)C)c(-c2cccc(Cn3cncn3)c2)c1` [8l, Isopropyl((3'-((1H-1,2,4-triazol-1-yl)methyl)-5-butoxy-[1,1′-biphenyl]-2-yl)sulfonyl)carbamate], the Ki on AT2 receptor [1] was determined as 56.6 ± 1.16 nM; on AT1 receptor, 2005 ± 1.16 nM. For the same molecule, the “Function (AT2 receptor agonist / antagonist)” value in the data set with AT2 receptor [2] is on record as “antagonistic activity; also recorded: AT2R antagonist; also recorded: antagonist activity”.
For the molecule `CCCCc1ccc(S(=O)(=O)NC(=O)OC(C)C)c(-c2cccc(Cn3cncn3)c2)c1` [8h, Isopropyl((3'-((1H-1,2,4-triazol-1-yl)methyl)-5-butyl-[1,1′-biphenyl]-2-yl)sulfonyl)carbamate], the affinity on AT2 receptor [1], expressed as Ki, was 82.9 ± 1.19 nM. Moreover, in the data set on AT2 receptor [2], the “Function (AT2 receptor agonist / antagonist)” value is “antagonistic activity; also recorded: antagonist activity” and the “evidence of cell death” value is recorded as “evidence of cell death”. On AT1 receptor, the Ki came out at 1505 ± 1.11 nM.
With `COc1ccc(Cn2cnc3c2C[C@@H](C(=O)O)N(C(=O)C(c2ccccc2)c2ccccc2)C3)cc1C` [EMA300], the Ki on AT2R is 28 nM.
With `CCCCOC(=O)NS(=O)(=O)c1ccc(OCCCC)cc1-c1cccc(Cn2cncn2)c1` [8j, Butyl((3'-((1H-1,2,4-triazol-1-yl)methyl)-5-butoxy-[1,1′-biphenyl]-2-yl)sulfonyl)carbamate], the Ki turned out to be 620.1 ± 1.27 nM on AT2 receptor [1] and 889.3 ± 1.24 nM on AT1 receptor. Besides, in the data set with AT2 receptor [2], the “Function (AT2 receptor agonist / antagonist)” value is “agonistic activity; also recorded: agonist activity; also recorded: AT2R agonist”.
In the same order, the values of `CCCCc1ccc(S(=O)(=O)NC(=O)OC(C)C)c(-c2cccc(Cn3cccn3)c2)c1` [9h, Isopropyl((3'-((1H-pyrazol-1-yl)methyl)-5-butyl-[1,1′-biphenyl]-2-yl)sulfonyl)carbamate] are 138 ± 1.34 nM, 1723 ± 1.07 nM and “antagonistic activity; also recorded: Antagonist”.
